From patent US6924278B2, “Aroyl-piperazine derivatives, their preparation and their use as tachykinin antagonists” (Fujisawa Pharmaceutical Co., Ltd., priority 1997, dated 2005)
Structures can show the parent of a compound that is named as a salt.

Key:
[1] = biological target: T1, h-NK1 receptors (Homo sapiens, UniProt P25103); assay: Evaluation of NK1 antagonist transport efficiency to the central nervous system using a h-NK1 receptor binding assay (brain extract after i.v. dosing of rats); settings: 5 min; compound extracted from brain of male SD rats 5 min after i.v. injection at the dose of 1 mg/kg; CHO cell membranes expressing h-NK1; read-out: inhibition rate of 125I-BH-Substance P binding to h-NK1 receptors
T1 construct: expressed in transfected cells; host or cells: CHO cells (permanent expression), crude cell membranes
T1 sequence (P25103 whole entry): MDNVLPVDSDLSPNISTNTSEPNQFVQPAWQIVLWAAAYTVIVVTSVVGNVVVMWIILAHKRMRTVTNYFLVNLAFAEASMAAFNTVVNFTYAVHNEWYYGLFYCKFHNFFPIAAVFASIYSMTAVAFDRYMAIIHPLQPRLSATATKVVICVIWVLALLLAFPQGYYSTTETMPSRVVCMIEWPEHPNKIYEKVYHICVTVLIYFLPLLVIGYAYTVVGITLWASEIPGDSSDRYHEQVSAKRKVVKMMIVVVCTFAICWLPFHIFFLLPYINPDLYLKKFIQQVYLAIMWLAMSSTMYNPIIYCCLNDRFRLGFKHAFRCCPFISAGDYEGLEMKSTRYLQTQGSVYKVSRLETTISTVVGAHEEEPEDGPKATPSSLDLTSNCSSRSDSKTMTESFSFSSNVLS
Procedure: A. Evaluation of NK1 Antagonist Transport Efficiency to the Cental Nervous System using a h-NK1 Receptor Binding Assay
(1) Administration of Test Compound and Extraction of the Compound from Brain
Male SD rats were given an i.v. injection of a solution containing a test compound (1 mg/kg). 5 Min later the animals were anesthetized by ether, bled and perfused through the aorta ascendens with 20 ml of saline. The brain was rapidly removed, weighed and homogenized in 4 vol. ice-cold distilled water by using Polytoron (KINEMATICA). To extract the test compound, 500 μl of the homogenate, 100 μl of methanol, 500 μl of 0.1 N NaOH and 4 ml of ethyl acetate were mixed by shaking for 10 min at room temperature. The organic phase (2.5 ml) was recovered by centrifugation at 3,000 rpm for 10 min, dried and dissolved in dimethyl sulfoxide.
(2) h-NK1 Receptor Binding Assay
(a) Crude CHO Cell Membrane Preparation
CHO cells permanently expressing h-NK1 receptors were harvested and homogenized with a Dounce homogenizer at 4° C. in a buffer (0.25 M sucrose, 25 mM Tris-HCl (pH 7.4), 10 mM MgCl2, 1 mM EDTA, 5 μg/ml p-APMSF). The homogenate was centrifuged (500×g, 10 min), and the pellet was resuspended in the same buffer, homogenized, and centrifuged. The two supernatants were combined and centrifuged (100,000×g, 1 hour). The crude cell membranes thus isolated were resuspended in a buffer (25 mM Tris-HCl (pH 7.4), 10 mM MgCl2, 1 mM. EDTA, 5 μg/ml p-APMSF) and stored at −80° C. until use.
(b) ^125I-BH-Substance P Binding to the Prepared Membrane
Cell membranes (6 μg/ml) were incubated with ^125I-BH-Substance P (0.1 nM) with or without the extracted compounds in 0.25 ml of a medium (50 mM Tris-HCl (pH 7.4), 5 mM MnCl2, 20 μg/ml chymostatin, 40 μg/ml bacitracin, 4 μg/ml leupeptin, 5 μg/ml p-APMSF, 200 μg/ml BSA) at 22° C. for 90 min. At the end of the incubation period, the contents were quickly filtered through a Blue Mat 11740 filter (pretreated with 0.1% polyethylenimine for 3 hours prior to use) by using SKATRON Cell Harvester. The filter was then washed with a washing buffer (50 mM Tris-HCl (pH 7.4), 5 mM MnCl2). The radioactivity was counted by using an auto gamma counter (Packard RIASTAR 5420A). All data presented are specific binding defined as that displaceable by 3 μM unlabeled Substance P.

Row | SMILES | inhibition at 1 mg/kg [1] [%] | melting point [°C]
1 | Cc1ccc(C[C@@H]2CN(C/C=C/c3cccnc3)CCN2C(=O)c2cc(C(F)(F)F)cc(C(F)(F)F)c2)cc1C.Cl.Cl [6-(1), (2R)-1-[3,5-Bis(trifluoromethyl)benzoyl]-2-(3,4-dimethylbenzyl)-4-[(E)-3-(3-pyridyl)-2-propenyl]piperazine dihydrochloride] | > 80 | 170 to 174
2 | Cc1ccc(C[C@@H]2CN(C/C=C/CN3CCOCC3)CCN2C(=O)c2cc(Cl)cc(Cl)c2)cc1C.Cl.Cl [16-(2), (2R)-1-(3,5-Dichlorobenzoyl)-2-(3,4-dimethylbenzyl)-4-[(E)-4-morpholino-2-butenyl]piperazine dihydrochloride] | > 80 | > 230
3 | Cl.Cl.O=C(c1cc(C(F)(F)F)cc(C(F)(F)F)c1)N1CCN(C/C=C/c2cccnc2)C[C@H]1Cc1c[nH]c2ccccc12 [56-(2), (2R)-1-[3,5-Bis(trifluoromethyl)benzoyl]-2-[(1H-indol-3-yl)methyl]-4-[(2E)-3-(3-pyridyl)-2-propenyl]piperazine dihydrochloride] | > 80 | 195 to 203
4 | Cc1ccc(C[C@@H]2CN(CC#CCN3CCOC[C@@H]3CF)CCN2C(=O)c2cc(C(F)(F)F)cc(C(F)(F)F)c2)cc1C [70-(1), (2R)-1-[3,5-Bis(trifluoromethyl)benzoyl]-2-(3,4-dimethylbenzyl)-4-[4-((3R)-3-fluoromethylmorpholino)-2-butynyl]piperazine dihydrochloride] | > 80 | –
5 | Cc1ccc(C[C@@H]2CN(CC#CCN3CCOCC(F)C3)CCN2C(=O)c2cc(C(F)(F)F)cc(C(F)(F)F)c2)cc1C (stereo partly drawn) [70-(2), (2R)-1-[3,5-Bis(trifluoromethyl)benzoyl]-2-(3,4-dimethylbenzyl)-4-[4-(tetrahydro-6-fluoro-1,4-oxazepin-4(5H)-yl)-2-butynyl]piperazine dihydrochloride] | > 80 | –
6 | COCC1(C)COCCN1CC#CCN1CCN(C(=O)c2cc(C(F)(F)F)cc(C(F)(F)F)c2)[C@H](Cc2ccc(C)c(C)c2)C1.Cl.Cl (stereo partly drawn) [71-(1), (2R)-1-[3,5-Bis(trifluoromethyl)benzoyl]-2-(3,4-dimethylbenzyl)-4-[4-(3-methoxymethyl-3-methylmorpholino)-2-butynyl]piperazine dihydrochloride] | > 80 | 155 to 160
7 | Cc1ccc(C[C@@H]2CN(CC#CCN3[C@@H](C)COC[C@@H]3C)CCN2C(=O)c2cc(C(F)(F)F)cc(C(F)(F)F)c2)cc1C.Cl.Cl [71-(3), (2R)-1-[3,5-Bis(trifluoromethyl)benzoyl]-2-(3,4-dimethylbenzyl)-4-[4-((3S,5S)-3,5-dimethylmorpholino)-2-butynyl]piperazine dihydrochloride] | > 80 | 160 to 165
8 | CC[C@H]1COCCN1CC#CCN1CCN(C(=O)c2cc(C(F)(F)F)cc(C(F)(F)F)c2)[C@H](Cc2c[nH]c3ccccc23)C1 [73-(2), (2R)-1-[3,5-Bis(trifluoromethyl)benzoyl]-4-[4-((3S)-3-ethylmorpholino)-2-butynyl]-2-[(1H-indol-3-yl)methyl]piperazine dihydrochloride] | > 80 | –
9 | CC[C@@H]1COCCN1CCN1CCN(C(=O)c2cc(C(F)(F)F)cc(C(F)(F)F)c2)[C@H](Cc2ccc(C)c(C)c2)C1 [80-(1), (2R)-1-[3,5-Bis(trifluoromethyl)benzoyl]-2-(3,4-dimethylbenzyl)-4-[2-((3R)-3-ethylmorpholino)ethyl]piperazine dihydrochloride] | > 80 | –
10 | CC[C@@H]1COCCN1CCN1CCN(C(=O)c2cc(C(F)(F)F)cc(C(F)(F)F)c2)[C@H](Cc2c[nH]c3ccccc23)C1 [81-(10), (2R)-1-[3,5-Bis(trifluoromethyl)benzoyl]-4-[2-((3R)-3-ethylmorpholino)ethyl]-2-[(1H-indol-3-yl)methyl]piperazine dihydrochloride] | > 80 | –
11 | COc1ccc(CC2CN(CC#CCN3CCOCC3(C)C)CCN2C(=O)c2cc(C(F)(F)F)cc(C(F)(F)F)c2)cc1C (stereo not drawn) [85-(3), 1-[3,5-Bis(trifluoromethyl)benzoyl]-4-[4-(3,3-dimethylmorpholino)-2-butynyl]-2-(4-methoxy-3-methylbenzyl)piperazine dihydrochloride] | > 80 | –
12 | Cc1ccc(C[C@@H]2CN(CC#CCN3CCOCC3(C)C)CCN2C(=O)c2cc(N(C)C)cc(C(F)(F)F)c2)cc1C [90-(5), (2R)-1-[3-(Dimethylamino)-5-(trifluoromethyl)benzoyl]-2-(3,4-dimethylbenzyl)-4-[4-(3,3-dimethylmorpholino)-2-butynyl]piperazine dihydrochloride] | > 80 | –
13 | O=C(c1cc(C(F)(F)F)cc(C(F)(F)F)c1)N1CCN(CC#Cc2cccnc2)C[C@H]1Cc1c[nH]c2ccccc12 [Example 1-(1), (2R)-1-[3,5-bis(trifluoromethyl)benzoyl]-2-[(1H-indol-3-yl)methyl]-4-[3-(3-pyridyl)-2-propynyl]piperazine] | > 80 | –
14 | Cc1ccc(C[C@@H]2CN(CCOCCN3CCOCC3)CCN2C(=O)c2cc(C(F)(F)F)cc(C(F)(F)F)c2)cc1C [Example 22, (2R)-1-[3,5-Bis(trifluoromethyl)benzoyl]-2-(3,4-dimethylbenzyl)-4-[2-(2-morpholinoethoxy)ethyl]piperazine dihydrochloride] | > 80 | –
15 | O=C(c1cc(C(F)(F)F)cc(C(F)(F)F)c1)N1CCN(CC#CCNCc2cccnc2)C[C@H]1Cc1ccc2ccccc2c1 [Example 30, (2R)-1-[3,5-bis(trifluoromethyl)benzoyl]-4-[4-(3-pyridylmethylamino)-2-butynyl]-2-(2-naphthylmethyl)piperazine trihydrochloride] | > 80 | –
16 | CC[C@H]1COCCN1CC#CCN1CCN(C(=O)c2cc(C(F)(F)F)cc(C(F)(F)F)c2)[C@H](Cc2ccc(C)c(C)c2)C1 [Example 38, (2R)-1-[3,5-bis(trifluoromethyl)benzoyl]-4-[4-((3S)-3-ethylmorpholino)-2-butynyl]-2-(3,4-dimethylbenzyl)piperazine dihydrochloride] | > 80 | –
17 | Cc1ccc(C[C@@H]2CN(Cc3cnn(CC(=O)O)c3)CCN2C(=O)c2cc(C(F)(F)F)cc(C(F)(F)F)c2)cc1C [Example 47, (2R)-1-[3,5-bis(trifluoromethyl)benzoyl]-4-[[1-(carboxymethyl)-1H-pyrazol-4-yl]methyl]-2-(3,4-dimethylbenzyl)piperazine] | – | 223 to 230
18 | COC[C@H]1COCCN1CCCCN1CCN(C(=O)c2cc(C(F)(F)F)cc(C(F)(F)F)c2)[C@H](Cc2ccc(C)c(C)c2)C1 [Example 82, (2R)-1-[3,5-bis(trifluoromethyl)benzoyl]-2-(3,4-dimethylbenzyl)-4-[4-((3S)-3-methoxymethylmorpholino)butyl]piperazine dihydrochloride] | > 80 | –
19 | CC1(C)COCCN1CC#CCN1CCN(C(=O)c2cc(C(F)(F)F)cc(C(F)(F)F)c2)C(Cc2ccc3c(c2)OCO3)C1 (stereo not drawn) [Example 84, 1-[3,5-bis-(trifluoromethyl)benzoyl]-4-[4-(3,3-dimethylmorpholino)-2-butynyl]-2-(3,4-methylenedioxybenzyl)piperazine dihydrochloride] | > 80 | –
